Holding throughout (type): biochemical
Test [1] addresses T1, firefly luciferase (Photinus pyralis, UniProt P08659). As to the kind of experiment: Quaternary ammonium/phosphonium detergent screen, firefly luciferase (Example 5). To be noted: Tergitol NP-9 present. The method, then: (§1) Each detergent was added at 0.2% to a reagent solution containing 50 mM Tricine pH 8.3, 3.5 mM MgSO4, 1 mM CDTA, 30 mM thiourea and 0.5% Tergitol NP-9. This solution or one not containing a detergent inhibitor was used to resuspend the Bright-Glo™ luciferin substrate (Promega).
(§2) The luciferase reactions were initiated by adding 100 μl of the firefly luciferase or Renilla luciferase enzyme solutions to 100 μl of reagent solution. The reactions were performed as described above. […] The detergent concentrations listed refer to the final concentration in the reaction.

In test [2] the target is T2, Renilla luciferase (Renilla reniformis, UniProt P27652).
T2 sequence (P27652 1-311): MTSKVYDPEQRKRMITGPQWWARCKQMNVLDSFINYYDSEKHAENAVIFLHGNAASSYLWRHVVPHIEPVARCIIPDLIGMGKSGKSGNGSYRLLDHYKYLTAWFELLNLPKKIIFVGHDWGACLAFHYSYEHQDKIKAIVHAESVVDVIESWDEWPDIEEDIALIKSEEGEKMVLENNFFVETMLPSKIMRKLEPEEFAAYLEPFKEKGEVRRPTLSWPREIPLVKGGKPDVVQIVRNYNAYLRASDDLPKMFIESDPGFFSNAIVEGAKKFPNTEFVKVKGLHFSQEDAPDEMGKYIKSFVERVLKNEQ
As to the kind of experiment: Quaternary ammonium/phosphonium detergent screen, Renilla luciferase (Example 5). To be noted: for remaining activity at 0.1 % / Retained Renilla Luciferase Luminescence (%): Tergitol NP-9 present. The method, then: as §1, §2

In test [3] the target is T1, firefly luciferase. As to the kind of experiment: Quaternary ammonium/phosphonium detergent screen, firefly luciferase (Example 5). The conditions noted are these: final conc. 0.03% detergent, Tergitol NP-9 present; for remaining activity at 0.03 %: read-out: Retained Firefly Luciferase Luminescence (%).
The target of test [4] is T2, Renilla luciferase. As to the kind of experiment: Quaternary ammonium/phosphonium detergent screen, Renilla luciferase (Example 5). The conditions noted are these: final conc. 0.03% detergent; for remaining activity at 0.03 % / Retained Renilla Luciferase Luminescence (%): Tergitol NP-9 present; for remaining activity at 0.03 %: read-out: Retained Renilla Luciferase Luminescence (%).

Where [5] appears, read: read-out: Retained Firefly Luciferase Luminescence (%), final conc. 0.10% detergent.
Setting [6] is: read-out: Retained Renilla Luciferase Luminescence (%), final conc. 0.10% detergent.
Setting [7] is: final conc. 0.10% detergent, read-out: Retained Firefly Luciferase Luminescence (%).
[8] abbreviates: final conc. 0.10% detergent, read-out: Retained Renilla Luciferase Luminescence (%).

Read-outs that look alike come from different tables or passages of the source.

T1 sequence (P08659 whole entry): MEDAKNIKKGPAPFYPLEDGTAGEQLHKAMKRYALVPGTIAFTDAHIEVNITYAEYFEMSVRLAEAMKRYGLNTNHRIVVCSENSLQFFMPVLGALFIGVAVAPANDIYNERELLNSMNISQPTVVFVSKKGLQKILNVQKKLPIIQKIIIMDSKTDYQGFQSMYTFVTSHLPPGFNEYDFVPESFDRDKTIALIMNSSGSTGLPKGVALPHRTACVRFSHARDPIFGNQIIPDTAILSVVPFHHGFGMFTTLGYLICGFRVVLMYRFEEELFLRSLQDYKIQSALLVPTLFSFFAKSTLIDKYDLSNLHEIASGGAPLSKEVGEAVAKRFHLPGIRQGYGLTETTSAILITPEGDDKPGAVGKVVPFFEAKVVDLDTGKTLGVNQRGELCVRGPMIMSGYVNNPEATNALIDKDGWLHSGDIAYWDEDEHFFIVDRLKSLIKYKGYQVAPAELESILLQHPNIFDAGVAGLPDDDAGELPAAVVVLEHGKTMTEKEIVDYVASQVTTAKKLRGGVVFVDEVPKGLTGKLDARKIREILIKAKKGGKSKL

Take `C[P+](CCCC(=O)O)(c1ccccc1)c1ccccc1.[Cl-]` [(3-Carboxyl-propyl)-methyl-diphenyl-phosphonium chloride]: the remaining activity at 0.1 % on firefly luciferase [1] (setting [5]) was found to be 102%; at Renilla luciferase [2] (setting [6]), 89%. For the same compound, the “Selectivity Value” on Renilla luciferase [2] (final conc. 0.10% detergent) was 0.9; on Renilla luciferase [4], 1.0. Besides, the remaining activity at 0.03 % is 98% at firefly luciferase [3] and 99% on Renilla luciferase [4].

In the case of `CC[N+](C)(C)c1cccc(O)c1` [Edrophonium chloride], the remaining activity at 0.1 % on firefly luciferase [1] (setting [7]) worked out at 102%; at Renilla luciferase [2] (setting [8]) it was 89%. Moreover, the “Selectivity Value” on Renilla luciferase [2] (final conc. 0.10% detergent) is on record as 1.1; on Renilla luciferase [4], 1.0. The results for the remaining activity at 0.03 % on firefly luciferase [3] and at Renilla luciferase [4] were 98% and 93%, respectively.

In the case of `CC[N+](CC)(CCC(=O)Nc1c(C)cccc1C)Cc1ccccc1.O=C([O-])c1ccccc1` [Benzyldiethyl(2,6-xylycarbamoylethyl)-ammonium benzoate], the results for the “Retained Firefly Luciferase Luminescence (%)” value at firefly luciferase [1] (final conc. 0.10% detergent) and at firefly luciferase [3] were 102% and 110%, respectively. Further, the “Selectivity Value” on Renilla luciferase [2] (final conc. 0.10% detergent) was 2.2; at Renilla luciferase [4], 1.5. The results for the “Retained Renilla Luciferase Luminescence (%)” value on Renilla luciferase [2] (final conc. 0.10% detergent) and at Renilla luciferase [4] were 46% and 74%, respectively.

`CC[P+](CC)(CC)Cc1ccccc1.[Br-]` [Benzyltriethylphosphonium bromide]: the remaining activity at 0.1 % at firefly luciferase [1] (setting [7]) stood at 102%; on Renilla luciferase [2] (setting [8]) it was 51%. Further, the “Selectivity Value” worked out at 2.0 on Renilla luciferase [2] (final conc. 0.10% detergent) and 1.1 on Renilla luciferase [4]. The remaining activity at 0.03 % at firefly luciferase [3] stood at 97%; on Renilla luciferase [4] it was 88%.

As to “(−)-N-dodecyl-N-methyl ephedrium bromide”, the results for the “Retained Firefly Luciferase Luminescence (%)” value at firefly luciferase [1] (final conc. 0.10% detergent) and on firefly luciferase [3] were 102% and 106%, respectively. For the same compound, the “Selectivity Value” came out at 102.1 on Renilla luciferase [2] (final conc. 0.10% detergent) and 7.1 at Renilla luciferase [4]. Further, the “Retained Renilla Luciferase Luminescence (%)” value at Renilla luciferase [2] (final conc. 0.10% detergent) amounted to 1%; at Renilla luciferase [4], 15%.

Consider `CCCC[P+](CCCC)(CCCC)Cc1ccc(C)cc1.[Cl-]` [(4-Methylbenzyl)tributylphosphonium chloride], for which the remaining activity at 0.1 % on firefly luciferase [1] (setting [7]) is 106%; at Renilla luciferase [2] (setting [8]), 32%. Besides, the “Selectivity Value” on Renilla luciferase [2] (final conc. 0.10% detergent) stood at 3.3; on Renilla luciferase [4] it was 1.5. In addition, the remaining activity at 0.03 % on firefly luciferase [3] is 99%; at Renilla luciferase [4], 65%.

As for `CCCCCCCCCC[N+](C)(C)Cc1ccccc1.[Cl-]` [Benzyldimethyldecylammonium chloride], the remaining activity at 0.1 % on firefly luciferase [1] (setting [7]) came to 112%; on Renilla luciferase [2] (setting [8]) it was 1%. The “Selectivity Value” on Renilla luciferase [2] (final conc. 0.10% detergent) is recorded as 112; on Renilla luciferase [4], 6.3. The figures for the remaining activity at 0.03 % on firefly luciferase [3] and at Renilla luciferase [4] were 114% and 18%, respectively.

In the case of `C=CCCC[P+](c1ccccc1)(c1ccccc1)c1ccccc1.[Br-]` [(4-Penten-1-yl)triphenylphosphonium bromide], the remaining activity at 0.1 % at firefly luciferase [1] (setting [7]) came to 102%; on Renilla luciferase [2] (setting [8]) it was 21%. The figures for the “Selectivity Value” at Renilla luciferase [2] (final conc. 0.10% detergent) and on Renilla luciferase [4] were 4.9 and 1.7, respectively. Moreover, the remaining activity at 0.03 % on firefly luciferase [3] was determined as 98%; at Renilla luciferase [4] it was 57%.

On to `CCCCCCCCCCC(C(=O)c1ccc(OC)cc1)[N+](C)(C)C.[Br-]` (stereo not drawn) [(1-(4-methoxybenzoyl)-undecyl)-trimethylammonium bromide], for which the remaining activity at 0.1 % on firefly luciferase [1] (setting [7]) was determined as 104%; on Renilla luciferase [2] (setting [8]), 2%. Besides, the “Selectivity Value” at Renilla luciferase [2] (final conc. 0.10% detergent) came out at 52; on Renilla luciferase [4], 5.3. Besides, the remaining activity at 0.03 % at firefly luciferase [3] came to 106%; at Renilla luciferase [4], 20%.

As for `C[N+](C)(Cc1ccccc1)c1ccccc1.[Br-]` [Benzyldimethylphenylammonium bromide], the “Retained Firefly Luciferase Luminescence (%)” value on firefly luciferase [1] (final conc. 0.10% detergent) was found to be 107%; on firefly luciferase [3], 101%. Moreover, the “Selectivity Value” at Renilla luciferase [2] (final conc. 0.10% detergent) and at Renilla luciferase [4] was 1.3 throughout. For the same compound, the entries for the “Retained Renilla Luciferase Luminescence (%)” value on Renilla luciferase [2] (final conc. 0.10% detergent) and at Renilla luciferase [4] were 81% and 78%, respectively.

On to `CC1(C)C=Cc2ccccc2[N+]1(C)C.[I-]` [1,1,2,2-Tetramethyl-1,2-dihydor-quinolynium iodide], for which the “Retained Firefly Luciferase Luminescence (%)” value stood at 74% at firefly luciferase [1] (final conc. 0.10% detergent) and 87% at firefly luciferase [3]. Also, the entries for the “Selectivity Value” at Renilla luciferase [2] (final conc. 0.10% detergent) and at Renilla luciferase [4] were 1.2 and 1.0, respectively. In addition, the figures for the “Retained Renilla Luciferase Luminescence (%)” value on Renilla luciferase [2] (final conc. 0.10% detergent) and on Renilla luciferase [4] were 89% and 88%, respectively.

With `CC=CC[P+](Cc1ccccc1)(c1ccccc1)c1ccccc1.[Br-]` [Benzyl-but-2-enyl-diphenyl-phosphonium bromide], the remaining activity at 0.1 % was 109% at firefly luciferase [1] (setting [7]) and 14% on Renilla luciferase [2] (setting [8]). For the same compound, the figures for the “Selectivity Value” on Renilla luciferase [2] (final conc. 0.10% detergent) and on Renilla luciferase [4] were 7.8 and 2.1, respectively. Further, the remaining activity at 0.03 % at firefly luciferase [3] was found to be 106%; at Renilla luciferase [4], 50%.

For `C[N+](C)(C)Cc1ccccc1.[Br-]` [Benzyltrimethylammonium bromide], the figures for the remaining activity at 0.1 % on firefly luciferase [1] (setting [5]) and at Renilla luciferase [2] (setting [6]) were 100% and 87%, respectively. The “Selectivity Value” on Renilla luciferase [2] (final conc. 0.10% detergent) and at Renilla luciferase [4] was 1.0 each time. Also, the remaining activity at 0.03 % at firefly luciferase [3] amounted to 99%; at Renilla luciferase [4] it was 95%.

Take `C[P+](C)(Cc1ccc([N+](=O)[O-])cc1)c1ccccc1.[Br-]` [Dimethyl(4-nitrobenzyl)phenylphosphonium bromide]: the figures for the remaining activity at 0.1 % on firefly luciferase [1] (setting [7]) and on Renilla luciferase [2] (setting [8]) were 106% and 49%, respectively. The “Selectivity Value” on Renilla luciferase [2] (final conc. 0.10% detergent) came to 2.2; on Renilla luciferase [4] it was 1.3. Besides, the remaining activity at 0.03 % came out at 99% at firefly luciferase [3] and 78% at Renilla luciferase [4].

As to `C[N+]1(C)CCCc2cccc(O)c21.[I-]` [1,1-Dimethyl-8-hydroxy-1,2,3,4-tetrahydroquinolium iodide], the entries for the “Retained Firefly Luciferase Luminescence (%)” value on firefly luciferase [1] (final conc. 0.10% detergent) and at firefly luciferase [3] were 68% and 81%, respectively. Also, the figures for the “Selectivity Value” at Renilla luciferase [2] (final conc. 0.10% detergent) and on Renilla luciferase [4] were 0.8 and 0.9, respectively. Also, the “Retained Renilla Luciferase Luminescence (%)” value was 82% on Renilla luciferase [2] (final conc. 0.10% detergent) and 88% on Renilla luciferase [4].

Regarding `C[N+](C)(C)Cc1ccccc1.[I-]` [Bezyltrimethylammonium iodide], the “Retained Firefly Luciferase Luminescence (%)” value on firefly luciferase [1] (final conc. 0.10% detergent) worked out at 62%; at firefly luciferase [3], 76%. The “Selectivity Value” at Renilla luciferase [2] (final conc. 0.10% detergent) is on record as 0.6; on Renilla luciferase [4], 0.8. Also, the “Retained Renilla Luciferase Luminescence (%)” value at Renilla luciferase [2] (final conc. 0.10% detergent) is 97%; at Renilla luciferase [4], 93%.

As to `C[N+](C)(Cc1ccccc1)c1ccccc1.[Cl-]` [Benzyldimethylphenylammonium chloride], at firefly luciferase [1] (final conc. 0.10% detergent), the “Retained Firefly Luciferase Luminescence (%)” value was 55%. Also, on Renilla luciferase [2] (final conc. 0.10% detergent), the “Selectivity Value” is on record as 4.6 and the “Retained Renilla Luciferase Luminescence (%)” value came out at 12%. Further, the remaining activity at 0.03 % at firefly luciferase [3] was 82%. In addition, at Renilla luciferase [4], the “Selectivity Value” was found to be 2.2 and the “Retained Renilla Luciferase Luminescence (%)” value stood at 38%.

As to `CC[N+](CC)(CC)Cc1ccccc1.[Br-]` [Benzyltriethylammonium bromide], the figures for the remaining activity at 0.1 % on firefly luciferase [1] (setting [5]) and at Renilla luciferase [2] (setting [6]) were 100% and 87%, respectively. Further, the “Selectivity Value” came out at 0.9 at Renilla luciferase [2] (final conc. 0.10% detergent) and 1.0 at Renilla luciferase [4]. Moreover, the remaining activity at 0.03 % on firefly luciferase [3] is 97%; at Renilla luciferase [4], 95%.

In the case of `CCCCCCCCCCCCCCCC[N+](C)(C)Cc1ccccc1.[Cl-]` [Benzyldimethylhexadecylammonium chloride], the remaining activity at 0.1 % at firefly luciferase [1] (setting [7]) was 97%; at Renilla luciferase [2] (setting [8]) it was 3%. In addition, the “Selectivity Value” at Renilla luciferase [2] (final conc. 0.10% detergent) amounted to 32.2; at Renilla luciferase [4] it was 2.1. Further, the figures for the remaining activity at 0.03 % on firefly luciferase [3] and on Renilla luciferase [4] were 100% and 47%, respectively.

On to `C=C(C)[P+](C)(c1ccccc1)c1ccccc1.[I-]` [Isopropenylmethyldiphenylphosphonium iodide], for which the values for the remaining activity at 0.1 % at firefly luciferase [1] (setting [7]) and on Renilla luciferase [2] (setting [8]) were 109% and 51%, respectively. For the same compound, the “Selectivity Value” on Renilla luciferase [2] (final conc. 0.10% detergent) was 2.1; on Renilla luciferase [4] it was 1.2. Moreover, the remaining activity at 0.03 % on firefly luciferase [3] amounted to 95%; on Renilla luciferase [4], 82%.

The values above are taken from patent US20080248511A1, “METHODS TO QUENCH LIGHT FROM OPTICAL REACTIONS” (priority 2007, published 2008).
